# Source: patent publication US20240067693A1, “POLYPEPTIDES AND USES THEREOF” (MEDIMMUNE LIMITED, priority 2020, published 2024)
# Numbered stars: 1 amine (or outer) side, 2 acyl side, 3 side chain; on linkers, the order of the positions; unused ones are H or OH. Bridge positions count the residues as written; N and C are the ends. Square brackets hold non-standard residues; d marks the D form. Side chains are listed from the residue outwards. Peptide text beside a SMILES is read from it. * marks the point of attachment. C18 diacid = O=C(O)CCCCCCCCCCCCCCCCC(=O)*; γGlu = O=C(O)[C@H](CCC(=O)[*:2])N[*:1]; Aib = CC(C)(N)C(=O)O
# Assays:
# [1] = molecular target: T1, human amylin receptor (calcitonin receptor co-expressed with receptor activity modifying protein, RAMP3) (hAMYR3) (Homo sapiens, UniProt O60896+P30988); assay: cAMP production in 1321N1 cells with stable recombinant expression of human amylin receptor (hAMYR3); format: cell-based; details: for Ratio (selectivity hAMYR vs hCTR, ratio of EC50 values at the two receptors): EC50 hCTR / EC50 hAMYR3; for EC50: cAMP, 1321N1 cells, assay buffer with 0.1% BSA, read-out: EC50 (pM) hAMYR3
# T1 construct: expressed in transfected cells
# T1 sequence (P30988 25-474): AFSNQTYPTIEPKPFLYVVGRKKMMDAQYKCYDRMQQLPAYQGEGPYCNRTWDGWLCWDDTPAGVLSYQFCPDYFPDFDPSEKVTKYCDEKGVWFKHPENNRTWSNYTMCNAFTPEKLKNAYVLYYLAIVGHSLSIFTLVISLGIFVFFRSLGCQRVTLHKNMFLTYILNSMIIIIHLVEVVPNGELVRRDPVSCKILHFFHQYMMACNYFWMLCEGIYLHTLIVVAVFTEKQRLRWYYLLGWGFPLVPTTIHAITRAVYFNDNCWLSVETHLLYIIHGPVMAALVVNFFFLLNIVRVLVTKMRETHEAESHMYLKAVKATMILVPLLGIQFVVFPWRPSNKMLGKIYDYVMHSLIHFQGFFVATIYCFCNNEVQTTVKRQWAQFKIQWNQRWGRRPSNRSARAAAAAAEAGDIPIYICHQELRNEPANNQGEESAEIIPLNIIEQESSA
# T1 sequence (O60896 24-148 partner): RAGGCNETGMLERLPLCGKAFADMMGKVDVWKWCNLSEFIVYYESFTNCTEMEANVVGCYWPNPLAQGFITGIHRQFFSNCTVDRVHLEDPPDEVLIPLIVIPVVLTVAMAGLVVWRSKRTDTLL
# How it was run: (§1)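 Receptor-expressing cells (human receptors in 1321N1, rat receptors in HEK) incubated 30 min at room temperature with peptide in HBSS/HEPES pH 7.4, 0.1% BSA, 0.5 mM IBMX. cAMP read by HTRF; EC50 from 4-parameter fit as % of maximal amylin or calcitonin response.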
# [2] = molecular target: T2, human calcitonin receptor (hCTR) (Homo sapiens, UniProt P30988); assay: cAMP production in 1321N1 cells with stable recombinant expression of human calcitonin receptor (hCTR); format: cell-based; details: cAMP, 1321N1 cells, assay buffer with 0.1% BSA; read-out: EC50 (pM) hCTR
# T2 construct: expressed in transfected cells
# T2 sequence (P30988 25-474): T1 sequence (P30988 25-474)
# How it was run: as §1
# [3] = molecular target: T3, rat amylin receptor (calcitonin receptor co-expressed with receptor activity modifying protein, RAMP3) (Rat AMYR3) (Rattus norvegicus, UniProt P32214+Q9JJ73); assay: cAMP production in HEK cells with stable recombinant expression of rat amylin receptor (Rat AMYR3); format: cell-based; details: assay buffer with 0.1% BSA
# T3 construct: expressed in transfected cells
# T3 sequence (P32214 25-516): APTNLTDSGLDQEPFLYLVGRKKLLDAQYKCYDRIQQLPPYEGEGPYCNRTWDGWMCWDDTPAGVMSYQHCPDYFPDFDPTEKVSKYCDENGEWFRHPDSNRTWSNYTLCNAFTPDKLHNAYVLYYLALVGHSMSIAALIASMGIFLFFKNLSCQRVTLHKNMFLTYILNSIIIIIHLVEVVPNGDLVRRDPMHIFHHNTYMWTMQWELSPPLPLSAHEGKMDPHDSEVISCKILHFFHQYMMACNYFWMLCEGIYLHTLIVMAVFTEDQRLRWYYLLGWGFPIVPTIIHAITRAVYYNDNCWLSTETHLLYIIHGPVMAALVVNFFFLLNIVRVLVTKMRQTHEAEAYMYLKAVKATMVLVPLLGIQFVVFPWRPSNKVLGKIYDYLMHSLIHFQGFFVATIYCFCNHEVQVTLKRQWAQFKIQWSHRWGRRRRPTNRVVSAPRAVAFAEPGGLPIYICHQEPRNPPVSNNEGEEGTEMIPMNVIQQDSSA
# T3 sequence (Q9JJ73 23-147 partner): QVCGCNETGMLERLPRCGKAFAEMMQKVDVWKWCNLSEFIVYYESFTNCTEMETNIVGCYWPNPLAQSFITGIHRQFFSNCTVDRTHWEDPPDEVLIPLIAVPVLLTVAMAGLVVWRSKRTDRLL
# Procedure: (§2) The functional activities of lipidated pramlintide analogue peptides, such as cAMP production, were tested in 1321N1 cell line with stable recombinant expression of human calcitonin receptor (hCTR) or human amylin receptor (calcitonin receptor co-expressed with receptor activity modifying protein, RAMP3) (hAMYR3) or HEK cells with stable recombinant expression of rat calcitonin receptor (rat CTR) or rat amylin receptor (calcitonin receptor co-expressed with receptor activity modifying protein, RAMP3) (Rat AMYR3).
# (§3) Cryopreserved cell stock was thawed rapidly in a water-bath, suspended in assay buffer (0.1% BSA (Sigma # A3059) in HBSS (Sigma # H8264) with 25 mM HEPES, pH 7.4 and containing 0.5 mM IB MX (Sigma# 17018)) and spun at 240×g for 5 minutes. Cells were re-suspended in assay buffer at a batch-dependent optimized concentration (e.g. hCTR cells at 0.125×10^5 cells/mL, hAMYR3 cells at 0.125×10^5 cells/mL, rat CTR cells at 1x10^5 cells/mL, rat AMYR3 at 2×10^5 cells/mL).
# (§4) The test peptide stock was prepared in DMSO and diluted in assay buffer to reach stated concentrations and transferred in duplicates into a 384-black shallow well microtitre assay plate (Corning # 3676). Cells were added to the assay plate, incubated at room temperature for 30 minutes and the cAMP level measured using cAMP dynamic 2 HTRF kit (Cisbio, Cat # 62AM4PEJ), following the two step protocol as per manufacturer's recommendations. The plates were read on an Envision (Perkin Elmer) using excitation wavelength of 320 nm and emission wavelengths of 620nm & 665 nm.
# (§5) Data was transformed to % Delta F as described in the manufacturer's guidelines and analyzed as percent activation of maximal amylin or calcitonin effect by 4-parameter logistic fit to determine EC50 values. The selectivity of a peptide to hAMYR vs hCTR is defined as a ratio of EC50 values at the two receptors.
# [4] = molecular target: T4, rat calcitonin receptor (rat CTR) (Rattus norvegicus, UniProt P32214); assay: cAMP production in HEK cells with stable recombinant expression of rat calcitonin receptor (rat CTR); format: cell-based; details: assay buffer with 0.1% BSA
# T4 construct: expressed in transfected cells
# T4 sequence (P32214 25-516): T3 sequence (P32214 25-516)
# Procedure: as §2, §3, §4, §5
# [5] = test system: lean rats; assay: Rat acute food intake study; format: in vivo; details: lean male Sprague Dawley rats, 20 nmol/kg subcutaneously
# Procedure: Male Sprague Dawley rats were obtained from Taconic Denmark, ApS at approximately 7 weeks of age. Rats were implanted with a microchip for identification, housed 4/cage with enrichment, free access to food and water, and allowed one week acclimatisation while non-invasive characterization was performed. Rats were on a 12:12 light:dark cycle that switches at 1pm:1am. Food intake was monitored via the HM2 system (Lafayette Instrument) that allows for monitoring in a home cage. As each rat enters an access tunnel to feed, an IR beam is broken, and the implanted microchip is read. Resulting changes to food weight is then assigned to the specific animal. Social order has shown no impact to overall feeding patterns and amounts.
# Rats were sorted into groups based on Day -1 body weight and 24-hour accumulated food intake (n=7 per group). On Day 0 rats were weighed, then fasted for 6 hours. Thirty (30) minutes prior to the reintroduction of food, rats were dosed subcutaneously (5 mL/kg) with 20 nmol/kg of test compound or 60 nmol/kg peptide 1 (pramlintide) diluted in an appropriate vehicle, after which food was returned, and lights went out. Automated food intake was monitored for the following 3 days, and rats were weighed once per day.
# Food intake per rat was batched into 1-hour intervals and integrated into Gubra's GubraView data management system. Discrete food intake data was exported into MS Excel from which cumulative food intake data was generated. Cumulative food intake data was then transposed into GraphPad Prism (v8.0.1) for analysis of dark period feeding
# [6] = Pharmacokinetic determination via IV and SC administration in Sprague Dawley rats; details: male, rat, plasma, 20 nmol/kg
# [7] = in vivo; details: male, Sprague-Dawley, rat, 20 nmol/kg
Structure (SMILES),"Ratio (selectivity hAMYR vs hCTR, ratio of EC50 values at the two receptors) [1]",EC50 [1] [pM],EC50 [2] [pM],EC50 [3] [pM],EC50 [4] [pM],Cummulative food intake (% vehicle treated intake) At 12 h [5] [% vehicle treated intake],Cummulative food intake (% vehicle treated intake) At 24 h [5] [% vehicle treated intake],Cummulative food intake (% vehicle treated intake) At 48 h [5] [% vehicle treated intake],half-life ([6]; iv) [h],half-life ([6]; sc) [h],half-life ([7]; iv) [h],half-life ([7]; sc) [h]
"CC[C@H](C)[C@H](NC(=O)[C@@H]1CCCN1C(=O)CNC(=O)[C@H](Cc1ccccc1)NC(=O)[C@H](CC(N)=O)NC(=O)C(C)(C)NC(=O)[C@H](CO)NC(=O)[C@H](CO)NC(=O)[C@H](Cc1c[nH]cn1)NC(=O)[C@@H](NC(=O)[C@H](CC(C)C)NC(=O)[C@H](Cc1ccccc1)NC(=O)[C@H](CCC(=O)O)NC(=O)[C@H](C)NC(=O)[C@H](CC(C)C)NC(=O)[C@H](CCCNC(=N)N)NC(=O)[C@H](CCC(N)=O)NC(=O)[C@@H](NC(=O)[C@H](C)NC(=O)[C@@H]1CSSC[C@H](NC(=O)[C@H](CCCCN)NC(=O)[C@@H](N)CCCCNC(=O)CC[C@H](NC(=O)CCCCCCCCCCCCCCCCC(=O)O)C(=O)O)C(=O)N[C@@H](CC(N)=O)C(=O)N[C@@H]([C@@H](C)O)C(=O)N[C@@H](C)C(=O)N[C@@H]([C@@H](C)O)C(=O)N1)[C@@H](C)O)C(C)C)C(=O)N[C@@H](CC(C)C)C(=O)N1CCC[C@H]1C(=O)N1CCC[C@H]1C(=O)N[C@H](C(=O)N[C@@H](CC(N)=O)C(=O)N[C@H](C(=O)NCC(=O)N[C@@H](CO)C(=O)N[C@@H](CC(N)=O)C(=O)N[C@H](C(=O)N[C@@H](Cc1ccc(O)cc1)C(N)=O)[C@@H](C)O)C(C)C)[C@@H](C)O [Peptide 38, K(γE-C18diacid)K[CNTATC]ATQRLAEFLVHSS(Aib)NFGPILPPTNVGSNTY-amide] (H-K([γGlu-C18 diacid])KCNTATCATQRLAEFLVHSS[Aib]NFGPILPPTNVGSNTY-NH2; disulfide 3-8; N-terminus assumed)",6,190,1050,5.1,20.3,6.9,5.5,13.7,6.6,9,–,–
"CC[C@H](C)[C@H](NC(=O)[C@@H]1CCCN1C(=O)CNC(=O)[C@H](Cc1ccccc1)NC(=O)[C@H](CC(N)=O)NC(=O)C(C)(C)NC(=O)[C@H](CO)NC(=O)[C@H](CO)NC(=O)[C@H](Cc1c[nH]cn1)NC(=O)[C@@H](NC(=O)[C@H](CC(C)C)NC(=O)[C@H](Cc1ccccc1)NC(=O)[C@H](CC(N)=O)NC(=O)[C@H](C)NC(=O)[C@H](CC(C)C)NC(=O)[C@H](CCCNC(=N)N)NC(=O)[C@H](CCC(N)=O)NC(=O)[C@@H](NC(=O)[C@H](C)NC(=O)[C@@H]1CSSC[C@H](NC(=O)[C@H](CCCCN)NC(=O)[C@@H](N)CCCCNC(=O)CC[C@H](NC(=O)CCCCCCCCCCCCCCCCC(=O)O)C(=O)O)C(=O)N[C@@H](CC(N)=O)C(=O)N[C@@H]([C@@H](C)O)C(=O)N[C@@H](C)C(=O)N[C@@H]([C@@H](C)O)C(=O)N1)[C@@H](C)O)C(C)C)C(=O)N[C@@H](CC(C)C)C(=O)N1CCC[C@H]1C(=O)N1CCC[C@H]1C(=O)N[C@H](C(=O)N[C@@H](CCC(=O)O)C(=O)N[C@H](C(=O)NCC(=O)N[C@@H](CO)C(=O)N[C@@H](CC(N)=O)C(=O)N[C@H](C(=O)N[C@@H](Cc1ccc(O)cc1)C(N)=O)[C@@H](C)O)C(C)C)[C@@H](C)O [Peptide 41, K(γE-C18diacid)K[CNTATC]ATQRLANFLVHSS(Aib)NFGPILPPTEVGSNTY-amide] (H-K([γGlu-C18 diacid])KCNTATCATQRLANFLVHSS[Aib]NFGPILPPTEVGSNTY-NH2; disulfide 3-8; N-terminus assumed)",7,178,1180,8.2,925,44.6,38.5,58.8,–,–,8.3,10.1
